# Source: ChEMBL document CHEMBL4385622, “Discovery of velpatasvir (GS-5816): A potent pan-genotypic HCV NS5A inhibitor in the single-tablet regimens Vosevi® and Epclusa®” (Bioorg Med Chem Lett, 2019)
# Key:
# [1] = Fraction absorbed in dog; assay type: ADME, Canis lupus familiaris; conditions: in vivo, read-out: Fabs
# [2] = Fraction absorbed in rat; assay type: ADME; conditions: in vivo, read-out: Fabs
# [3] = biological target: T1, Nonstructural protein 5A (Hepatitis C virus) (UniProt Q5L478); test: Potency index, ratio of EC50 of ledipasvir to EC50 of test compound for inhibition of NS5A in HCV genotype 3a infected in human HuH7 replicon cells assessed as reduction in viral replication after 3 days by luciferase reporter gene assay; assay type: cell-based; conditions: Hepatitis C virus subtype 3a
# T1 sequence (whole entry): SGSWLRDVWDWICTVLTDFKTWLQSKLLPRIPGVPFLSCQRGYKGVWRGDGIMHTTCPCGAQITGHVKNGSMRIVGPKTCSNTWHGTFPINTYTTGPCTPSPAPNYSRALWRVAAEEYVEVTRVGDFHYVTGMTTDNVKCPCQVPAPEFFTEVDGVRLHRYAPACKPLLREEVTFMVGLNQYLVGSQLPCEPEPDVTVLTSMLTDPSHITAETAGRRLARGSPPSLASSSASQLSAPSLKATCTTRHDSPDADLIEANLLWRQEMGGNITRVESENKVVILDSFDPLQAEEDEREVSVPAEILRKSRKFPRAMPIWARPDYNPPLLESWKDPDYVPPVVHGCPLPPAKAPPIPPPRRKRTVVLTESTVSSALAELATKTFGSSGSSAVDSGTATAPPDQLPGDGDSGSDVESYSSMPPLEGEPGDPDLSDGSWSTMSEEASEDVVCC
# [4] = biological target: T1, Nonstructural protein 5A (Hepatitis C virus); test: Potency index, ratio of EC50 of ledipasvir to EC50 of test compound for inhibition of NS5A in HCV genotype 2a J6 infected in human HuH7 replicon cells assessed as reduction in viral replication after 3 days by luciferase reporter gene assay; assay type: cell-based; conditions: Hepatitis C virus subtype 2a
# [5] = biological target: T1, Nonstructural protein 5A (Hepatitis C virus); test: Potency index, ratio of EC50 of ledipasvir to EC50 of test compound for inhibition of NS5A in HCV genotype 2b infected in human HuH7 replicon cells assessed as reduction in viral replication after 3 days by luciferase reporter gene assay; assay type: cell-based; conditions: Hepatitis C virus subtype 2b
# [6] = Fraction absorbed in cynomolgus monkey; assay type: ADME, Macaca fascicularis; conditions: in vivo, read-out: Fabs
# [7] = Unbound drug level in human plasma; assay type: ADME, cell-free
# [8] = Selectivity index, ratio of CC50 for human MT4 cells infected with HCV genotype 1a H77 to EC50 for NS5A in HCV genotype 1a H77 infected in human MT4 replicon cells; assay type: toxicity, cell-based; conditions: read-out: Ratio CC50/EC50
# [9] = Oral bioavailability in monkey at 1 mg/kg; assay type: ADME, organism-based, Macaca mulatta; conditions: rhesus monkey, in vivo
# [10] = Half life in dog at 0.25 mg/kg, iv; assay type: ADME, organism-based, Canis lupus familiaris; conditions: in vivo
# [11] = Cytotoxicity against human HepG2 cells infected with HCV genotype 1b Con-1 assessed as reduction in cell viability incubated for 5 days by CellTiter-Glo luminescent assay; assay type: cell-based
# [12] = Volume of distribution at steady state in rat at 2 mg/kg, iv; assay type: ADME, organism-based; conditions: in vivo, read-out: Vdss
# [13] = Cytotoxicity against human MRC5 cells infected with HCV genotype 1a H77 assessed as reduction in cell viability incubated for 5 days by CellTiter-Glo luminescent assay; assay type: cell-based
# [14] = Cytotoxicity against human PC3 cells infected with HCV genotype 1a H77 assessed as reduction in cell viability incubated for 5 days by CellTiter-Glo luminescent assay; assay type: cell-based, PC-3
# [15] = Unbound drug level in dog plasma; assay type: ADME, cell-free, Canis lupus familiaris
# [16] = Clearance in monkey at 0.5 mg/kg, iv; assay type: ADME, organism-based, Macaca mulatta; conditions: rhesus monkey, in vivo
# [17] = Cytotoxicity against human MT4 cells infected with HCV genotype 1b Con-1 assessed as reduction in cell viability incubated for 5 days by CellTiter-Glo luminescent assay; assay type: cell-based
# [18] = Clearance in rat at 2 mg/kg, iv; assay type: ADME, organism-based; conditions: in vivo
# [19] = Oral bioavailability in rat at 2 mg/kg; assay type: ADME, organism-based; conditions: in vivo
# [20] = Cytotoxicity against human MT4 cells infected with HCV genotype 1a H77 assessed as reduction in cell viability incubated for 5 days by CellTiter-Glo luminescent assay; assay type: cell-based
# [21] = Oral bioavailability in human at 100 mg; assay type: ADME, organism-based; conditions: in vivo
# [22] = Half life in monkey at 0.5 mg/kg, iv; assay type: ADME, organism-based, Macaca mulatta; conditions: rhesus monkey, in vivo
# [23] = Selectivity index, ratio of CC50 for human Huh7 cells infected with HCV genotype 1a H77 to EC50 for NS5A in HCV genotype 1a H77 infected in human HuH7 replicon cells; assay type: toxicity, cell-based; conditions: read-out: Ratio CC50/EC50
# [24] = Cytotoxicity against human HuH7 cells infected with HCV genotype 1a H77 assessed as reduction in cell viability incubated for 5 days by CellTiter-Glo luminescent assay; assay type: cell-based, Huh-7
# [25] = Oral bioavailability in dog at 0.5 mg/kg; assay type: ADME, organism-based, Canis lupus familiaris; conditions: in vivo
# [26] = Cytotoxicity against human HuH7 cells infected with HCV genotype 1b Con-1 assessed as reduction in cell viability incubated for 5 days by CellTiter-Glo luminescent assay; assay type: cell-based, Huh-7
# [27] = Half life in rat at 2 mg/kg, iv; assay type: ADME, organism-based; conditions: in vivo
# [28] = Selectivity index, ratio of CC50 for human PC3 cells infected with HCV genotype 1a H77 to EC50 for NS5A in HCV genotype 1a H77 infected in human PC3 replicon cells; assay type: toxicity, cell-based; conditions: read-out: Ratio CC50/EC50
# [29] = Half life in human at 100 mg, po; assay type: ADME; conditions: in vivo
# [30] = Unbound drug level in rat plasma; assay type: ADME, cell-free
# [31] = Selectivity index, ratio of CC50 for human MRC5 cells infected with HCV genotype 1a H77 to EC50 for NS5A in HCV genotype 1a H77 infected in human MRC5 replicon cells; assay type: toxicity, cell-based; conditions: read-out: Ratio CC50/EC50
# [32] = Cytotoxicity against human MRC5 cells infected with HCV genotype 1b Con-1 assessed as reduction in cell viability incubated for 5 days by CellTiter-Glo luminescent assay; assay type: cell-based
# [33] = Volume of distribution at steady state in dog at 0.25 mg/kg, iv; assay type: ADME, organism-based, Canis lupus familiaris; conditions: in vivo, read-out: Vdss
# [34] = Cytotoxicity against human PC3 cells infected with HCV genotype 1b Con-1 assessed as reduction in cell viability incubated for 5 days by CellTiter-Glo luminescent assay; assay type: cell-based, PC-3
# [35] = Unbound drug level in monkey plasma; assay type: ADME, cell-free, Macaca mulatta; conditions: rhesus monkey
# [36] = Cytotoxicity against human HepG2 cells infected with HCV genotype 1a H77 assessed as reduction in cell viability incubated for 5 days by CellTiter-Glo luminescent assay; assay type: cell-based
# [37] = Clearance in dog at 0.25 mg/kg, iv; assay type: ADME, organism-based, Canis lupus familiaris; conditions: in vivo
# [38] = Selectivity index, ratio of CC50 for human HepG2 cells infected with HCV genotype 1a H77 to EC50 for NS5A in HCV genotype 1a H77 infected in human HepG2 replicon cells; assay type: toxicity, cell-based; conditions: read-out: Ratio CC50/EC50
# [39] = Volume of distribution at steady state in monkey at 0.5 mg/kg, iv; assay type: ADME, organism-based, Macaca mulatta; conditions: rhesus monkey, in vivo, read-out: Vdss
smiles,measurement,setting,value
COC(=O)N[C@@H](C(=O)N1[C@@H](C)CC[C@H]1c1ncc(-c2cc3c4c(c2)OCc2cc(-c5cnc([C@@H]6CC[C@H](C)N6C(=O)[C@H](NC(=O)OC)c6ccccc6)[nH]5)cc(c2-4)OC3)[nH]1)c1ccccc1,Fa,[1],43%
same,Fa,[2],3%
COC(=O)N[C@H](C(=O)N1CCC[C@H]1c1ncc(-c2cc3c4c(c2)OCc2cc(-c5cnc([C@@H]6CCCN6C(=O)[C@@H](NC(=O)OC)C(C)C)[nH]5)cc(c2-4)OC3)[nH]1)C(C)C,Ratio EC50,[3],4800
same,Ratio EC50,[4],28
same,Fa,[1],70%
same,Fa,[2],23%
same,Ratio EC50,[5],300
same,Fa,[6],15%
COC[C@H]1C[C@@H](c2ncc(-c3cc4c5c(c3)OCc3cc(-c6cnc([C@@H]7CC[C@H](C)N7C(=O)[C@@H](NC(=O)OC)C(C)C)[nH]6)cc(c3-5)OC4)[nH]2)N(C(=O)[C@H](NC(=O)OC)c2ccccc2)C1,Fa,[2],29%
same,Fa,[6],26%
COC[C@H]1C[C@@H](c2nc3ccc4cc5c(cc4c3[nH]2)OCc2cc(-c3cnc([C@@H]4CC[C@H](C)N4C(=O)[C@@H](NC(=O)OC)C(C)C)[nH]3)ccc2-5)N(C(=O)[C@@H](NC(=O)OC)C(C)C)C1,Fa,[2],13%
same,Fa,[6],64%
COC(=O)N[C@H](C(=O)N1CCC[C@H]1c1ncc(-c2ccc3c(c2)COc2cc4c(ccc5nc([C@@H]6C[C@H](C)CN6C(=O)[C@@H](NC(=O)OC)C(C)C)[nH]c54)cc2-3)[nH]1)C(C)C,Fa,[2],10%
COC(=O)N[C@H](C(=O)N1CCC[C@H]1c1ncc(-c2ccc3c(c2)COc2cc4c(ccc5nc([C@@H]6CCCN6C(=O)[C@H](NC(=O)OC)c6ccccc6)[nH]c54)cc2-3)[nH]1)C(C)C,Fa,[1],56%
same,Fa,[2],13%
same,Fa,[6],16%
COC(=O)N[C@@H](C(=O)N1CCC[C@H]1c1ncc(-c2cc3c4c(c2)OCc2cc(-c5cnc([C@@H]6CCCN6C(=O)[C@H](NC(=O)OC)c6ccccc6)[nH]5)cc(c2-4)OC3)[nH]1)c1ccccc1,Fa,[1],34%
same,Fa,[2],2%
same,Fa,[6],2%
COC[C@H]1C[C@@H](c2ncc(-c3ccc4c(c3)COc3cc5c(ccc6nc([C@@H]7CC[C@H](C)N7C(=O)[C@@H](NC(=O)OC)C(C)C)[nH]c65)cc3-4)[nH]2)N(C(=O)[C@H](NC(=O)OC)c2ccccc2)C1 [VELPATASVIR],Fu,[7],0.3%
same,selectivity ratio,[8],> 4.9e+06
same,bioavailability,[9],30%
same,half-life,[10],5.2 h
same,CC50 at 120 h,[11],> 44.4 µM
same,Vd,[12],1.61 L/kg
same,CC50 at 120 h,[13],> 44.4 µM
same,CC50 at 120 h,[14],> 44.4 µM
same,Fu,[15],0.2%
same,clearance,[16],5 mL/min/kg
same,CC50 at 120 h,[17],> 44.4 µM
same,clearance,[18],15.7 mL/min/kg
same,bioavailability,[19],28%
same,CC50 at 120 h,[20],> 44.4 µM
same,bioavailability,[21],50%
same,half-life,[22],5.03 h
same,selectivity ratio,[23],> 4.9e+06
same,Fa,[1],29%
same,Fa,[2],36%
same,CC50 at 120 h,[24],> 44.4 µM
same,bioavailability,[25],25%
same,CC50 at 120 h,[26],> 44.4 µM
same,half-life,[27],2.25 h
same,selectivity ratio,[28],> 4.9e+06
same,half-life,[29],15.7 h
same,Fu,[30],0.2%
same,selectivity ratio,[31],> 4.9e+06
same,CC50 at 120 h,[32],> 44.4 µM
same,Vd,[33],1.43 L/kg
same,CC50 at 120 h,[34],> 44.4 µM
same,Fa,[6],37%
same,Fu,[35],0.4%
same,CC50 at 120 h,[36],> 44.4 µM
same,clearance,[37],4.17 mL/min/kg
same,selectivity ratio,[38],> 4.9e+06
same,Vd,[39],1.6 L/kg
COC[C@H]1C[C@@H](c2nc3ccc4cc5c(cc4c3[nH]2)OCc2cc(-c3cnc([C@@H]4CCCN4C(=O)[C@@H](NC(=O)OC)C(C)C)[nH]3)ccc2-5)N(C(=O)[C@@H](NC(=O)OC)C(C)C)C1,Fa,[1],56%
same,Fa,[2],16%
COC[C@H]1C[C@@H](c2ncc(-c3ccc4c(c3)COc3cc5c(ccc6nc([C@@H]7C[C@H](C)CN7C(=O)[C@@H](NC(=O)OC)C(C)C)[nH]c65)cc3-4)[nH]2)N(C(=O)[C@H](NC(=O)OC)c2ccccc2)C1,Fa,[2],9%
same,Fa,[6],4%
